Results published in paper PMC4729137, “Functional analysis of androgen receptor mutations that confer anti-androgen resistance identified in circulating cell-free DNA from prostate cancer patients” (Genome Biology, 2016).
Substitutions are numbered along the chain they refer to.

Assays:
[1] = biological target: T1, M896T-AR (Homo sapiens, UniProt P10275, M896T); experiment: cell-based
T1 sequence (P10275 1-920 M896T): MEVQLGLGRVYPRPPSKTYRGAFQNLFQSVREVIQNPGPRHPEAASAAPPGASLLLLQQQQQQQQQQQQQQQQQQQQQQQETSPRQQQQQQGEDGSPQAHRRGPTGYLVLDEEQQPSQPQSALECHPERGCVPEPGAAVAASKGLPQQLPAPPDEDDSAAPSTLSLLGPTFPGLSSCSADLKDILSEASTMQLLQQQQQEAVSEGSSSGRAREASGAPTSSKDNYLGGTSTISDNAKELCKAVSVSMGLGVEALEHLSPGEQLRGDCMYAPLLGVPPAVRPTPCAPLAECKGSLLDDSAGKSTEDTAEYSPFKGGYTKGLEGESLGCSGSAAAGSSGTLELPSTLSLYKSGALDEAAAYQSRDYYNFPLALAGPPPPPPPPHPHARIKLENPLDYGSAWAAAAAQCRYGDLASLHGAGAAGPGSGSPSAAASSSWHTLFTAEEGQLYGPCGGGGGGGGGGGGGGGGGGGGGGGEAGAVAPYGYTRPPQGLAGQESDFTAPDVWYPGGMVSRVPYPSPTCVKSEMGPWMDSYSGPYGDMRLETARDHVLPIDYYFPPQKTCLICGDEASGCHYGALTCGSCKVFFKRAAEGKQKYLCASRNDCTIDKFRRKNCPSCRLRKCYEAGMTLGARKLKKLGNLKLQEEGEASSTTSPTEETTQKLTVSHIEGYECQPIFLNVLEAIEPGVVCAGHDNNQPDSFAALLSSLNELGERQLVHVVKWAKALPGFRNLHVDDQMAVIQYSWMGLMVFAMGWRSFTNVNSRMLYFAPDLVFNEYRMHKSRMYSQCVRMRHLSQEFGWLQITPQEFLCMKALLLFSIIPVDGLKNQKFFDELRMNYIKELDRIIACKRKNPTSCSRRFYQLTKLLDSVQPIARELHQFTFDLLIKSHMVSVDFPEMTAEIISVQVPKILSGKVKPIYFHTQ

[2] = biological target: T2, H875Q-AR (Homo sapiens, UniProt P10275, H875Q); experiment: cell-based
T2 sequence (P10275 1-920 H875Q): T1 sequence (P10275 1-920 M896T) with H875Q, T896M

Structure (SMILES): C[C@]12CCC(=O)C=C1CC[C@@H]1[C@@H]2[C@@H](O)C[C@@]2(C)[C@H]1CC[C@]2(O)C(=O)CO [hydrocortisone]
- EC50 [1]: > 500 nM
- EC50 [2]: > 500 nM
